Reference: patent US7741350B1 (Cara Therapeutics, Inc., priority 2009, dated 2010)
pEC50: −log10 of the molar value. Like-named read-outs stand apart in the source and are kept apart here.

What was measured:
[1] = molecular target: human CB1 receptor (hCB1) (Homo sapiens, UniProt P21554); experiment: cAMP assay at human CB1 receptor; type: cell-based; details: hCB1R; maximum measurable range 30 μM; read-out: EC50 (Potency at Human CB1 determined by cAMP Assay)
Procedure, shortened: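 Changes in intracellular cAMP measured by TR-FRET (665/615 nm) in forskolin-stimulated cells; cAMP read from a concurrent standard curve. Values normalised between forskolin and forskolin plus 1 μM CP55,940 wells. EC50 and intrinsic activity relative to CP55,940 from four-parameter nonlinear regression.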

[2] = molecular target: human CB2 receptor (hCB2) (Homo sapiens, UniProt P34972); experiment: cAMP assay at human CB2 receptor; type: cell-based; details: hCB2R, maximum measurable range 30 μM
Procedure, shortened: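 Values expressed as percent of the window between forskolin-stimulated wells and forskolin plus 1 μM CP55,940 wells.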

male Sprague-Dawley rats = experiment: Anti-hyperalgesia in the Complete Freund's Adjuvant (CFA) model of inflammatory pain; type: in vivo; details: PO dose 3 mg/kg; 1 hr after dosing; thermal hyperalgesia; rat; read-out: % MPE (1 hr), paw withdrawal latency after CFA injection
Experimental: The anti-hyperalgesic effects of test compounds in the Complete Freund's Adjuvant (CFA) model of inflammatory pain were determined essentially as described in U.S. Pat. No. 7,517,874 using male Sprague-Dawley rats (Hsd: Sprague-Dawley®SD®, Harlan, Indianapolis, Ind.) weighing 200-300 grams.
Test compounds were prepared in a Cremaphor vehicle mixture of 1:1:18 CremophorEL:ethanol:water. Cremophor was obtained from Sigma Chemical (St. Louis, Mo.). The vehicle mixture or vehicle mixture plus test compound were each administered orally.
Assessment of thermal hyperalgesia: Baseline and post-treatment paw withdrawal latencies to a noxious thermal stimulus were measured using a plantar test apparatus (Ugo Basile; obtained from Stoelting, Wood Dale, Ill.). This apparatus generates an infrared heat source that is linearly increasing in intensity. To avoid tissue damage, the power to the heat source was cut off after 20 seconds.
Paw withdrawal latency is defined as the time required for the rat to flick its paw away from the thermal stimulus. Ibuprofen (100 mg/kg, p.o.) was used as the positive control. Paw withdrawal latencies (in seconds) were measured before (naïve paw latency, L1) and 24 hr following (CFA-inflamed paw latency, L2) a single intraplantar injection of 0.1 mL CFA (Sigma-Aldrich, cat F5881, Mycobacterium tuberculosis 1 mg/ml).
Test compounds were administered orally 23 hours following CFA injection; i.e., 1 hour prior to thermal assessment (compound treated CFA-inflamed paw latency, L3). The mean paw withdrawal latency and standard error of the mean (SEM) was determined for the injured paws for each treatment group.
Data were expressed as percent maximum […] effect (% MPE) defined as the percentage of restoration of latency of test compound-treated CFA inflamed paw as compared to the naïve paw latency.

[3] = read-out: EC50 (Potency at Human CB2 determined by cAMP Assay)
[4] = EC50 (Potency at Human CB2 determined by cAMP Assay)

human CB1 receptor (hCB1), sequence (P21554 whole entry): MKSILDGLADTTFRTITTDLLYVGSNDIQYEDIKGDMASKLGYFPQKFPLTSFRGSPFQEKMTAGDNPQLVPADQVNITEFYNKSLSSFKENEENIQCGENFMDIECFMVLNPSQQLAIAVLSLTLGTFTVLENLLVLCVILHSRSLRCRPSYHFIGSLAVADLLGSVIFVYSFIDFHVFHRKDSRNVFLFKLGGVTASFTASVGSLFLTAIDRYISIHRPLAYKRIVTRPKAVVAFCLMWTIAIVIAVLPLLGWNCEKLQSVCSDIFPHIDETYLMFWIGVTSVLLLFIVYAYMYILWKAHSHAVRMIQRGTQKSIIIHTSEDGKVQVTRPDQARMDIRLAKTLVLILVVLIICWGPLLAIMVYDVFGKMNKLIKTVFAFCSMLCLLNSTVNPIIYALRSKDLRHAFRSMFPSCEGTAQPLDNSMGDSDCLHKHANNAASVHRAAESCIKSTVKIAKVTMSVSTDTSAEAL
human CB2 receptor (hCB2), sequence (P34972 whole entry): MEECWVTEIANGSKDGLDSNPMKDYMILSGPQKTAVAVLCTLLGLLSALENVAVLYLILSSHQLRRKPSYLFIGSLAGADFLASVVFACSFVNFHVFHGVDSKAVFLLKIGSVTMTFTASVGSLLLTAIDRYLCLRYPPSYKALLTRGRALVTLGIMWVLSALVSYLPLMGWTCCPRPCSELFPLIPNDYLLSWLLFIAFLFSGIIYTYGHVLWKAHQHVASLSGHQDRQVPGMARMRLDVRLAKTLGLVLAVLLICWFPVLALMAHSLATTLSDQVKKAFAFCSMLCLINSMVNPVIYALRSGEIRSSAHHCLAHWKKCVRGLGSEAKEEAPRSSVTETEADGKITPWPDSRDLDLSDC

Structure (SMILES) | pEC50 [1] | pEC50 [2, 3] | pEC50 [2, 4] | inhibition in vivo at 3 mg/kg (male Sprague-Dawley rats)
CN1CCc2c(c(-c3cc(F)c(F)cc3F)nn2C(=O)N[C@H](C(=O)N2CCC[C@@H]2C(N)=O)C(C)(C)C)C1 [Compound 75, N—((S)-1-((R)-2-carbamoylpyrrolidin-1-yl)-3,3-dimethyl-1-oxobutan-2-yl)-5-methyl-3-(2,4,5-trifluorophenyl)-4,5,6,7-tetrahydro-1H-pyrazolo[4,3-c]pyridine-1-carboxamide] | > 6.00 | < 6.00 | – | –
CNC(=O)[C@@H]1CCCN1C(=O)[C@@H](NC(=O)n1nc(-c2cc(F)c(F)cc2F)c2c1CCN(C)C2)C(C)(C)C [Compound 76, N—((S)-3,3-dimethyl-1-((S)-2-(methyl-carbamoyl)pyrrolidin-1-yl)-1-oxobutan-2-yl)-5-methyl-3-(2,4,5-trifluorophenyl)-4,5,6,7-tetrahydro-1H-pyrazolo[4,3-c]pyridine-1-carboxamide] | > 6.00 | < 6.00 | – | –
CCOC(=O)N1CCN(C(=O)[C@@H](NC(=O)n2nc(-c3cc(F)c(F)cc3F)c3c2CCN(C)C3)C(C)(C)C)CC1 [Compound 77, (S)-ethyl 4-(3,3-dimethyl-2-(5-methyl-3-(2,4,5-trifluorophenyl)-4,5,6,7-tetrahydro-1H-pyrazolo[4,3-c]pyridine-1-carboxamido)butanoyl)piperazine-1-carboxylate] | > 6.00 | < 6.00 | – | –
CN1CCc2c(c(-c3cc(F)c(F)cc3F)nn2C(=O)N[C@H](C(=O)N2CCC[C@H](O)C2)C(C)(C)C)C1 [Compound 78] | > 6.00 | < 6.00 | – | –
CN1CCc2c(c(-c3cc(F)c(F)cc3F)nn2C(=O)N[C@H](C(=O)N2CCC(C(N)=O)CC2)C(C)(C)C)C1 [Compound 79, (S)—N-(1-(4-carbamoylpiperidin-1-yl)-3,3-dimethyl-1-oxobutan-2-yl)-5-methyl-3-(2,4,5-trifluorophenyl)-4,5,6,7-tetrahydro-1H-pyrazolo[4,3-c]pyridine-1-carboxamide] | > 6.00 | < 6.00 | – | –
CN1CCc2c(c(-c3cc(F)c(F)cc3F)nn2C(=O)N[C@H](C(=O)NCCCO)C(C)(C)C)C1 [Compound 80, (S)—N-(1-(3-hydroxypropylamino)-3,3-dimethyl-1-oxobutan-2-yl)-5-methyl-3-(2,4,5-trifluorophenyl)-4,5,6,7-tetrahydro-1H-pyrazolo[4,3-c]pyridine-1-carboxamide] | > 6.00 | < 6.00 | – | –
CN1CCc2c(c(-c3cc(F)ccc3F)nn2C(=O)N[C@H](C(=O)O)C(C)(C)C)C1 [Compound 81, (S)-2-(3-(2,5-difluorophenyl)-5-methyl-4,5,6,7-tetrahydro-1H-pyrazolo[4,3-c]pyridine-1-carboxamido)-3,3-dimethylbutanoic acid] | < 4.52 | < 4.52 | – | –
CCN1CCc2c(c(-c3cc(F)ccc3F)nn2C(=O)N[C@H](C(=O)O)C(C)(C)C)C1 [Compound 82, (S)-2-(3-(2,5-difluorophenyl)-5-ethyl-4,5,6,7-tetrahydro-1H-pyrazolo[4,3-c]pyridine-1-carboxamido)-3,3-dimethylbutanoic acid] | < 4.52 | – | < 4.52 | –
CCOC(=O)CN1CCc2c(c(-c3cc(F)c(F)cc3F)nn2C(=O)N[C@H](C(=O)NC)C(C)(C)C)C1 [Compound 83, (S)-ethyl 2-(1-(3,3-dimethyl-1-(methylamino)-1-oxobutan-2-ylcarbamoyl)-3-(2,4,5-trifluorophenyl)-6,7-dihydro-1H-pyrazolo[4,3-c]pyridin-5(4H)-yl)acetate] | > 6.00 | < 6.00 | – | –
CNC(=O)[C@@H](NC(=O)n1nc(-c2cc(F)c(F)cc2F)c2c1CCNC2)C(C)(C)C [Compound 84, (S)—N-(3,3-dimethyl-1-(methylamino)-1-oxobutan-2-yl)-3-(2,4,5-trifluorophenyl)-4,5,6,7-tetrahydro-1H-pyrazolo[4,3-c]pyridine-1-carboxamide] | > 6.00 | – | > 6.00 | –
CNC(=O)[C@@H](NC(=O)n1nc(-c2cc(F)c(F)cc2F)c2c1CCN(CCO)C2)C(C)(C)C [Compound 85, (S)—N-(3,3-dimethyl-1-(methylamino)-1-oxobutan-2-yl)-5-(2-hydroxyethyl)-3-(2,4,5-trifluorophenyl)-4,5,6,7-tetrahydro-1H-pyrazolo[4,3-c]pyridine-1-carboxamide] | > 6.00 | – | > 6.00 | –
CC(C)(C)[C@H](NC(=O)n1nc(-c2cc(Cl)ccc2F)c2c1CCOC2)C(=O)NCCO [Compound 86, (S)-3-(5-chloro-2-fluorophenyl)-N-(1-(2-hydroxyethylamino)-3,3-dimethyl-1-oxobutan-2-yl)-6,7-dihydropyrano[4,3-c]pyrazole-1(4H)-carboxamide] | > 6.00 | – | > 6.00 | 27%
CC(C)(C)[C@H](NC(=O)n1nc(-c2cc(F)ccc2F)c2c1CCOC2)C(=O)NCCO [Compound 87, (S)-3-(2,5-difluorophenyl)-N-(1-(2-hydroxyethylamino)-3,3-dimethyl-1-oxobutan-2-yl)-6,7-dihydropyrano[4,3-c]pyrazole-1(4H)-carboxamide] | > 6.00 | – | > 6.00 | 50%
CC(C)(C)[C@H](NC(=O)n1nc(-c2ccc(Cl)cc2F)c2c1CCOC2)C(=O)NCCO [Compound 88, (S)-3-(4-chloro-2-fluorophenyl)-N-(1-(2-hydroxyethylamino)-3,3-dimethyl-1-oxobutan-2-yl)-6,7-dihydropyrano[4,3-c]pyrazole-1(4H)-carboxamide] | > 6.00 | > 6.00 | – | 47%
CN1CCc2c(-c3cc(F)c(F)cc3F)nn(C(=O)N[C@H](C(=O)NCCO)C(C)(C)C)c2C1 [Compound 89, (S)—N-(1-(2-hydroxyethylamino)-3,3-dimethyl-1-oxobutan-2-yl)-6-methyl-3-(2,4,5-trifluorophenyl)-4,5,6,7-tetrahydro-1H-pyrazolo[3,4-c]pyridine-1-carboxamide] | > 6.00 | – | > 6.00 | 52%
CN1CCc2c(-c3ccc(F)c(F)c3)nn(C(=O)N[C@H](C(=O)NCCO)C(C)(C)C)c2C1 [Compound 90, (S)-3-(3,4-difluorophenyl)-N-(1-(2-hydroxyethylamino)-3,3-dimethyl-1-oxobutan-2-yl)-6-methyl-4,5,6,7-tetrahydro-1H-pyrazolo[3,4-c]pyridine-1-carboxamide] | > 6.00 | < 6.00 | – | 25%
CN1CCCc2c1c(-c1ccc(F)c(F)c1)nn2C(=O)N[C@H](C(=O)NCCO)C(C)(C)C [Compound 91, (S)-3-(3,4-difluorophenyl)-N-(1-(2-hydroxyethylamino)-3,3-dimethyl-1-oxobutan-2-yl)-4-methyl-4,5,6,7-tetrahydro-1H-pyrazolo[4,3-b]pyridine-1-carboxamide] | > 6.00 | > 6.00 | – | 47%
CN1CCCc2c1c(-c1cc(F)ccc1F)nn2C(=O)N[C@H](C(=O)NCCO)C(C)(C)C [Compound 92, (S)-3-(2,5-difluorophenyl)-N-(1-(2-hydroxyethylamino)-3,3-dimethyl-1-oxobutan-2-yl)-4-methyl-4,5,6,7-tetrahydro-1H-pyrazolo[4,3-b]pyridine-1-carboxamide] | > 6.00 | – | > 6.00 | 23%
CN1CCc2c(-c3cc(F)ccc3F)nn(C(=O)N[C@H](C(=O)NCCO)C(C)(C)C)c2C1 [Compound 93, (S)-3-(2,5-difluorophenyl)-N-(1-(2-hydroxyethylamino)-3,3-dimethyl-1-oxobutan-2-yl)-6-methyl-4,5,6,7-tetrahydro-1H-pyrazolo[3,4-c]pyridine-1-carboxamide] | > 6.00 | – | > 6.00 | 28%
CC(C)(C)[C@H](NC(=O)n1nc(-c2cc(F)c(F)cc2F)c2c1COCC2)C(=O)NCCO [Compound 97, (S)—N-(1-(2-hydroxyethylamino)-3,3-dimethyl-1-oxobutan-2-yl)-3-(2,4,5-trifluorophenyl)-4,5-dihydropyrano[3,4-c]pyrazole-1(7H)-carboxamide] | > 6.00 | – | > 6.00 | –
CCOC(=O)CN1CCCc2c1c(-c1ccc(F)c(F)c1)nn2C(=O)N[C@H](C(=O)NC)C(C)(C)C [Compound 100, (S)-ethyl 2-(3-(3,4-difluorophenyl)-1-(3,3-dimethyl-1-(methylamino)-1-oxobutan-2-ylcarbamoyl)-6,7-dihydro-1H-pyrazolo[4,3-b]pyridin-4(5H)-yl)acetate] | > 6.00 | – | > 6.00 | –
